Test results from patent US10239843B2 (CANCER RESEARCH TECHNOLOGY LIMITED, priority 2014, dated 2019).
Read-outs that look alike come from different tables or passages of the source.

How the values were obtained:
PARG in HeLa cell line = experiment: PARG cell assay (PAR chain immunofluorescence after MMS); format: cell-based; conditions: HeLa cells
Protocol: This method is based on the detection of endogenous levels of poly (ADP) ribose chains present in the nucleus of HeLa cell line using indirect immunofluorescence. MMS stimulation increases PAR chains for up to 25 mins. After that point, PARG is active and breaks down the PAR chains, until by one hour after stimulation no PAR chains are detectable. Inhibition of PARG maintains PAR chains.
Briefly, following compound treatment and treatment with the DNA damaging agent methylmethanesulfonate (MMS), the cell monolayer is fixed, then permeabilised and incubated with a mouse monoclonal antibody raised against multimers of poly(ADP) ribose.
At the end of the 1 h dosing period, MMS was added to duplicates at a final concentration of 50 μg/mL, for a further hour.
Media was tipped off and the cells fixed with 50 μL ice-cold 95% MetOH/PBS for 15 mins at −20° C. Following a PBS wash, 50 μL PBS/0.1% Triton was added to the cells for 20 mins. Following another PBS wash, anti-PAR antibody (Calbiochem AM80) was diluted 1:4000 in a buffer (PBS+0.5% FBS+0.05% Tween20) and added to the cells and incubated overnight at 4° C.
Cells were washed three times with PBS and the plate sealed with a light-proof seal.

Human Full Length PARG = Human Full Length PARG (Homo sapiens (Human), UniProt Q86W56); experiment: PARG enzyme assay (TR-FRET); format: biochemical
Sequence of Human Full Length PARG (Q86W56 whole entry): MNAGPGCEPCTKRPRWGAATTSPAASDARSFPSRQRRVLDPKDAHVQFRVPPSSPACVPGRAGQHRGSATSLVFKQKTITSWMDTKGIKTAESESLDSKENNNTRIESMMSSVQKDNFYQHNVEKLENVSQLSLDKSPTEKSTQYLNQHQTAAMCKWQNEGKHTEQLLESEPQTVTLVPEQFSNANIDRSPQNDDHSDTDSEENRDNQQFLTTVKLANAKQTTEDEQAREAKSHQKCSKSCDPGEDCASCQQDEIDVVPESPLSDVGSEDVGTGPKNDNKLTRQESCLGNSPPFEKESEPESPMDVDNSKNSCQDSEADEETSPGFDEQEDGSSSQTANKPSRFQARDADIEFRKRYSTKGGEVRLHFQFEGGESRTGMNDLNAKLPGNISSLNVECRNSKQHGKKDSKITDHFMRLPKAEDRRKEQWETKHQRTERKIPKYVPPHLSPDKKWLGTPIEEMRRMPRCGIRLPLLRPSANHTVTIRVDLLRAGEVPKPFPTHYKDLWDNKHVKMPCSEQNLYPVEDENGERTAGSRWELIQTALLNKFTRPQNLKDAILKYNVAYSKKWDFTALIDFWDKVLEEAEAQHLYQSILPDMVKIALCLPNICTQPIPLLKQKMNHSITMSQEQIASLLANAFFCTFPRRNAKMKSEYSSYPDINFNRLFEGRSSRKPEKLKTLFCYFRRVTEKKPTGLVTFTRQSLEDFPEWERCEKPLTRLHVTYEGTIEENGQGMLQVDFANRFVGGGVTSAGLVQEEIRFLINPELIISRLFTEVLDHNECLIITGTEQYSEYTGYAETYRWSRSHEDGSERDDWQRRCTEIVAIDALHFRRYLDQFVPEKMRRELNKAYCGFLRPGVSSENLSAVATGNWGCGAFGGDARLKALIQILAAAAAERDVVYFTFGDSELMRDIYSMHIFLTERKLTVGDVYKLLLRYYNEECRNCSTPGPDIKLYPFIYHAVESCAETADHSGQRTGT

[1] = Homo sapiens, MMS 50 μg/mL, read-out: PARG Cell IC50 Geomean
[2] = Homo sapiens, MMS treatment, read-out: PARG Cell IC50
[3] = read-out: PARG Biochem IC50 Geomean

Row | Compound | IC50 (Human Full Length PARG; [3]) | also measured
1 | Cn1c(=O)c2cc(S(=O)(=O)NC3(C)CC3)ccc2n(CC2CC2(F)F)c1=O (stereo not shown) [Example 36] |  | IC50 (PARG in HeLa cell line; [1]): 0.591 µM
2 | Cn1cc(Cn2c(=O)c3cc(S(=O)(=O)NC4(C)CC4)ccc3n(CC3CN(C(=O)OC(C)(C)C)C3)c2=O)cn1 [Example 365] |  | IC50 (PARG in HeLa cell line; [1]): 0.218 µM
3 | Cc1cc(Cn2c(=O)c3cc(S(=O)(=O)NC4(CF)CC4)ccc3n(CCF)c2=O)on1 [Example 526, 1-(2-Fluoroethyl)-N-[1-(fluoromethyl)cyclopropyl]-3-[(3-methylisoxazol-5-yl)methyl]-2,4-dioxo-quinazoline-6-sulfonamide] |  | IC50 (PARG in HeLa cell line; [2]): 0.133 µM
4 | Cc1cc2cc(S(=O)(=O)NC3(C)CC3)ccc2n(CC2CC2)c1=O [Example 426, 1-(Cyclopropylmethyl)-3-methyl-N-(1-methylcyclopropyl)-2-oxo-quinoline-6-sulfonamide] |  | IC50 (PARG in HeLa cell line; [2]): 1.41 µM
5 | 1-[(2,5-Dimethylpyrazol-3-yl)methyl]-3-[(1-methylpyrazol-4-yl)methyl]-2,4-dioxo-N-[1-(trideuteriomethyl)cyclopropyl]quinazoline-6-sulfonamide [Example 490] |  | IC50 (PARG in HeLa cell line; MMS treatment, read-out: PARG Cell IC50): 0.07 µM
6 | Cc1cc(Cn2c(=O)n(Cc3nnc(C)s3)c(=O)c3cc(S(=O)(=O)NC4(CF)CC4)ccc32)n(C)n1 [Example 603, 1-[(2,5-Dimethylpyrazol-3-yl)methyl]-N-[1-(fluoromethyl)cyclopropyl]-3-[(5-methyl-1,3,4-thiadiazol-2-yl)methyl]-2,4-dioxo-quinazoline-6-sulfonamide] |  | IC50 (PARG in HeLa cell line; [2]): 0.496 µM
7 | Cc1cc(Cn2c(=O)c3cc(S(=O)(=O)NC4(C)CC4)ccc3n(CC3CC(C)(C)O3)c2=O)on1 (stereo not shown) [Example 352] |  | IC50 (PARG in HeLa cell line; [1]): 0.608 µM
8 | Cn1cc(Cn2c(=O)c3cc(S(=O)(=O)NC4(C)CC4)ccc3n(CC3CC3)c2=O)cn1 [Example 174] |  | IC50 (PARG in HeLa cell line; [1]): 0.056 µM
9 | Cn1c(=O)n(Cc2ccno2)c(=O)c2cc(S(=O)(=O)NC3(CF)CC3)ccc21 [Example 513, N-[1-(Fluoromethyl)cyclopropyl]-3-(isoxazol-5-ylmethyl)-1-methyl-2,4-dioxo-quinazoline-6-sulfonamide] |  | IC50 (PARG in HeLa cell line; [2]): 0.534 µM
10 | Cn1c(=O)c2cc(S(=O)(=O)NC3(C)CC3)ccc2n(CC2CC2)c1=O [Example 23] |  | IC50 (PARG in HeLa cell line; [1]): 0.519 µM
11 | CCC#CCn1c(=O)n(C)c(=O)c2cc(S(=O)(=O)NC3(C)CC3)ccc21 [Example 137] |  | IC50 (PARG in HeLa cell line; [1]): 0.608 µM
12 | Cc1nc(C(F)(F)F)c(Cn2c(=O)c3cc(S(=O)(=O)NC4(C)CC4)ccc3n(C)c2=O)s1 [Example 179] | 0.725 µM | 
13 | Cn1c(=O)c2cc(S(=O)(=O)NC3(C)CC3)ccc2n(Cc2noc(C(C)(C)C)n2)c1=O [Example 119] | 1.42 µM | 
14 | Cn1c(=O)n(CC(=O)c2ccc(N3CCCC3)cc2)c(=O)c2cc(S(=O)(=O)NC3(C)CC3)ccc21 [Example 114] | 1.51 µM | 
15 | CCn1c(=O)n(C)c(=O)c2cc(S(=O)(=O)NC3(C)CC3)ccc21 [Example 9] | 4.11 µM | 
16 | CCOC(=O)C(F)n1c(=O)n(Cc2cc(C)no2)c(=O)c2cc(S(=O)(=O)NC3(C)CC3)ccc21 (stereo not shown) [Example 335] | 1.05 µM | 
17 | CCn1c(=O)c2cc(S(=O)(=O)NC3(C)CC3)ccc2n(CC2CCCCC2)c1=O [Example 13] | 3.1 µM | 
18 | Cc1cc(Cn2ncc3ccc(S(=O)(=O)NC4(C)CC4)cc3c2=O)on1 [Example 299, N-(1-Methylcyclopropyl)-3-[(3-methylisoxazol-5-yl)methyl]-4-oxo-phthalazine-6-sulfonamide] | 1.27 µM | 
19 | Cn1c(=O)c2cc(S(=O)(=O)NC3(C)CC3)ccc2n(Cc2c(F)cccc2F)c1=O [Eample 75] | 0.714 µM | 
20 | Cn1c(=O)n(Cc2nc3ccccc3[nH]2)c(=O)c2cc(S(=O)(=O)NC3(C)CC3)ccc21 [Example 112] | 5.71 µM | 
21 | Cc1cc(Cn2cc(Br)c3ccc(S(=O)(=O)NC4(C)CC4)cc3c2=O)on1 [Example 307, 4-Bromo-N-(1-methylcyclopropyl)-2-[(3-methylisoxazol-5-yl)methyl]-1-oxo-isoquinoline-7-sulfonamide] | 2.68 µM | 
22 | Cn1c(=O)c2cc(S(=O)(=O)NC3(C)CC3)ccc2n(Cc2nccs2)c1=O [Example 146] | 0.671 µM | 

Row | Compound | IC50 (Human Full Length PARG; [3]) | also measured
23 | Cc1nc(C)c(Cn2c(=O)n(C)c(=O)c3cc(S(=O)(=O)NC(C)(C)C)ccc32)s1 [Example 202] | 1.39 µM | 
24 | Cn1c(=O)n(Cc2cnccn2)c(=O)c2cc(S(=O)(=O)NC3(C)CC3)ccc21 [Example 108] | 7.8 µM | 
25 | Cn1nnnc1Cn1c(=O)c2cc(S(=O)(=O)NC3(C)CC3)ccc2n(C)c1=O [Example 508, 1-Methyl-N-(1-methylcyclopropyl)-3-[(1-methyltetrazol-5-yl)methyl]-2,4-dioxo-quinazoline-6-sulfonamide] |  | IC50 (Human Full Length PARG; read-out: PARG Biochem IC50): 2.77 µM
26 | Cn1c(=O)n(CC(=O)c2cccs2)c(=O)c2cc(S(=O)(=O)NC3(C)CC3)ccc21 [Example 529, 1-Methyl-N-(1-methylcyclopropyl)-2,4-dioxo-3-[2-oxo-2-(2-thienyl)ethyl]quinazoline-6-sulfonamide] |  | IC50 (Human Full Length PARG; read-out: PARG Biochem IC50): 1.05 µM
27 | Cc1cc(Cn2c(=O)c3cc(S(=O)(=O)NC4CC4)ccc3n(C)c2=O)on1 [Example 260] | 3.79 µM | 
28 | Cc1cc(Cn2c(=O)n(C)c(=O)c3cc(S(=O)(=O)NC4(C)CC4)ccc32)no1 [Example 105] | 1.43 µM | 
29 | Cc1cc(Cn2nc(N(C)C)c3ccc(S(=O)(=O)NC4(C)CC4)cc3c2=O)on1 [Example 282] | 0.638 µM | 
30 | Cn1c(=O)c2cc(S(=O)(=O)NC3(C)CC3)ccc2n(CC2CCCCO2)c1=O (stereo not shown) [Example 38] | 1.55 µM | 
31 | Cc1cc(Cn2ccc3ccc(S(=O)(=O)NC4(C)CC4)cc3c2=O)on1 [Example 242, N-(1-Methylcyclopropyl)-2-[(3-methylisoxazol-5-yl)methyl]-1-oxo-isoquinoline-7-sulfonamide] | 7.35 µM | 
32 | COc1ccc(Cn2cc(Cn3c(=O)c4cc(S(=O)(=O)NC5(C)CC5)ccc4n(C)c3=O)cn2)cc1 [Example 212] | 1.37 µM | 
33 | Cn1c(=O)n(Cc2ccno2)c(=O)c2cc(S(=O)(=O)NC3(C)CC3)ccc21 [Example 226] | 1.18 µM | 
34 | Cc1cc(Cn2c(=O)c3cc(S(=O)(=O)NC4(C)CC4)ccc3n(CC(C)O)c2=O)on1 (stereo not shown) [Example 338] | 0.523 µM | 
35 | Cc1cc(Cn2c(=O)c3cc(S(=O)(=O)NC4(C)CC4)ccc3n(CCN3CCN(C)CC3)c2=O)on1 [Example 341] | 0.511 µM | 
36 | Cn1c(=O)c(=O)[nH]c2ccc(S(=O)(=O)NC3(C)CC3)cc21 [Example 21, 4-Methyl-N-(1-methylcyclopropyl)-2,3-dioxo-1H-quinoxaline-6-sulfonamide] | 6.93 µM | 
37 | Cc1cc(Cn2nc(C(=O)NCC3CCOCC3)c3ccc(S(=O)(=O)NC4(C)CC4)cc3c2=O)on1 [Example 331] | 0.795 µM | 
38 | Cn1c(=O)c2cc(S(=O)(=O)NC3(C)CC3)ccc2n(Cc2ccccc2Cl)c1=O [Example 62] | 1.27 µM | 
39 | Cn1c(=O)n(Cc2ccncc2)c(=O)c2cc(S(=O)(=O)NC3(C)CC3)ccc21 [Example 53] | 7.98 µM | 
40 | COc1cccc(Cc2nn(Cc3cc(C)no3)c(=O)c3cc(S(=O)(=O)NC4(C)CC4)ccc23)c1 [Example 315] | 0.871 µM | 
41 | Cn1c(=O)c2cc(S(=O)(=O)NC3(C)CC3)ccc2n(Cc2nc3ccccc3[nH]2)c1=O [Example 116] | 1.05 µM | 
42 | Cn1c(=O)c(=O)n(Cc2ccc(F)cc2)c2ccc(S(=O)(=O)NC3(C)CC3)cc21 [Example 130, 1-[(4-Fluorophenyl)methyl]-4-methyl-N-(1-methylcyclopropyl)-2,3-dioxo-quinoxaline-6-sulfonamide] | 3.36 µM | 
43 | Cn1c(-c2ccccc2)nc2ccc(S(=O)(=O)NC3(C)CC3)cc2c1=O [Example 97] | 2.19 µM | 
